Data taken from publication PMC12337661, “PIEZO1 mechanical insensitivity in generalized lymphatic dysplasia with the potential for pharmacological rescue” (iScience, 2025).

What was measured:
Assay in all cases: Intracellular Ca2+ measurement (fura-2), T-REx-293 cells stably transfected
Type in all cases: cell-based
[1] = molecular target: T1, R2351Q mPIEZO1 (Mus musculus, UniProt E2JF22, R2351Q)
T1 construct: expressed in transfected cells
Experimental: (§1) T-REx-293 cell line was transfected with pcDNA4/TO-mPIEZO1 constructs using Lipofectamine 2000 (Invitrogen) as above and treated with 200 μg.mL^−1 zeocin (InvivoGen) to select for stably transfected cells. At least two strongly expressing clonal cell lines were established and tested for each variant. All cell lines were maintained in Dulbecco’s Modified Eagle’s medium (Invitrogen) supplemented with 10% heat-inactivated fetal calf serum (Sigma-Aldrich), penicillin (50 units.mL^−1) and streptomycin (0.5 mg.mL^−1) (Sigma-Aldrich) and grown at 37°C in a humidified 5% CO2 incubator.
(§2) For intracellular Ca^2+ assays, cells were plated at 80–90% confluence in 96-well plates 24 h prior to recordings (6–8 × 10^4 cells per well). […] Cells were washed with SBS and incubated at room temperature for 20 min prior to recordings. Equal volumes of 2x concentrated compounds were injected to test for acute channel activation. Pre-incubation with compounds occurred during the 20 min prior to recordings. To expose cell membranes to hypo-osmolality, an equal volume of hypotonic SBS (containing only 35 mM NaCl) was injected onto the cells. Measurements were made on a fluorescence plate reader (Flexstation III, Molecular Devices) at room temperature (21 ± 2°C). Fura-2 was excited at 340 nm and 380 nm and emitted light collected at 510 nm, with measurements shown as the change in fluorescence (F) ratio (ΔF340/380).
(§3) KC41 (Dooku1) was prepared as described.[28] All purchased chemicals and solvents were used without further purification unless otherwise stated. All compounds were at least 95% pure by 1H NMR. 1H Nuclear Magnetic Resonance spectra were recorded at 500 MHz using a Bruker DRX 500 instrument or at 400 MHz using a Bruker DPX 400. 1H spectra are referenced based on the residual proton in the solvent (e.g., the CHCl3, 0.01% in 99.99% CDCl3). Coupling constants (J) are reported to the nearest 0.1 Hz. 13C NMR spectra were recorded at 125 MHz on 500 MHz spectrometers or at 100 MHz on 400 MHz spectrometers. LC-MS was performed on a Bruker Daltronics running a gradient of increasing acetonitrile (5–95%) in H2O both containing 0.1% formic acid at 1 mL.min^−1, on a short path C18 reverse phase column, detecting compounds with both a diode array detector and a Bruker mass spectrum analyser. HRMS was performed on a Bruker Daltonics micrOTOF using positive electrospray ionisation (ES+). Automated column chromatograph was carried out using a Biotage Isolera Four, using either Sfär Silica D or KP-Silica cartridges. HPLC was performed on an Agilent 1290 Infinity Series equipped with a UV detector and Hyperprep C18 reverse phase column. Key to NMR abbreviations: s (singlet), br s (broad singlet) d (doublet), dd (doublet of doublets), ddd (doublet of doublets of doublets), t (triplet), dt (doublet of triples), q (quartet), m (multiplet), ap. t (apparent triplet). For experiments, Yoda1 and its analogues were prepared as 10 mM stock solutions in 100% dimethyl sulfoxide (DMSO) before serial dilution in DMSO and final dilution in aqueous solution. Cells were exposed to 0.1% DMSO for all concentrations of the compounds from 0 to 10 μM.

[2] = molecular target: T2, E824V mPIEZO1 (Mus musculus, UniProt E2JF22, E824V); conditions: versus WT
T2 construct: expressed in transfected cells
T2 sequence (E2JF22 whole entry E824V): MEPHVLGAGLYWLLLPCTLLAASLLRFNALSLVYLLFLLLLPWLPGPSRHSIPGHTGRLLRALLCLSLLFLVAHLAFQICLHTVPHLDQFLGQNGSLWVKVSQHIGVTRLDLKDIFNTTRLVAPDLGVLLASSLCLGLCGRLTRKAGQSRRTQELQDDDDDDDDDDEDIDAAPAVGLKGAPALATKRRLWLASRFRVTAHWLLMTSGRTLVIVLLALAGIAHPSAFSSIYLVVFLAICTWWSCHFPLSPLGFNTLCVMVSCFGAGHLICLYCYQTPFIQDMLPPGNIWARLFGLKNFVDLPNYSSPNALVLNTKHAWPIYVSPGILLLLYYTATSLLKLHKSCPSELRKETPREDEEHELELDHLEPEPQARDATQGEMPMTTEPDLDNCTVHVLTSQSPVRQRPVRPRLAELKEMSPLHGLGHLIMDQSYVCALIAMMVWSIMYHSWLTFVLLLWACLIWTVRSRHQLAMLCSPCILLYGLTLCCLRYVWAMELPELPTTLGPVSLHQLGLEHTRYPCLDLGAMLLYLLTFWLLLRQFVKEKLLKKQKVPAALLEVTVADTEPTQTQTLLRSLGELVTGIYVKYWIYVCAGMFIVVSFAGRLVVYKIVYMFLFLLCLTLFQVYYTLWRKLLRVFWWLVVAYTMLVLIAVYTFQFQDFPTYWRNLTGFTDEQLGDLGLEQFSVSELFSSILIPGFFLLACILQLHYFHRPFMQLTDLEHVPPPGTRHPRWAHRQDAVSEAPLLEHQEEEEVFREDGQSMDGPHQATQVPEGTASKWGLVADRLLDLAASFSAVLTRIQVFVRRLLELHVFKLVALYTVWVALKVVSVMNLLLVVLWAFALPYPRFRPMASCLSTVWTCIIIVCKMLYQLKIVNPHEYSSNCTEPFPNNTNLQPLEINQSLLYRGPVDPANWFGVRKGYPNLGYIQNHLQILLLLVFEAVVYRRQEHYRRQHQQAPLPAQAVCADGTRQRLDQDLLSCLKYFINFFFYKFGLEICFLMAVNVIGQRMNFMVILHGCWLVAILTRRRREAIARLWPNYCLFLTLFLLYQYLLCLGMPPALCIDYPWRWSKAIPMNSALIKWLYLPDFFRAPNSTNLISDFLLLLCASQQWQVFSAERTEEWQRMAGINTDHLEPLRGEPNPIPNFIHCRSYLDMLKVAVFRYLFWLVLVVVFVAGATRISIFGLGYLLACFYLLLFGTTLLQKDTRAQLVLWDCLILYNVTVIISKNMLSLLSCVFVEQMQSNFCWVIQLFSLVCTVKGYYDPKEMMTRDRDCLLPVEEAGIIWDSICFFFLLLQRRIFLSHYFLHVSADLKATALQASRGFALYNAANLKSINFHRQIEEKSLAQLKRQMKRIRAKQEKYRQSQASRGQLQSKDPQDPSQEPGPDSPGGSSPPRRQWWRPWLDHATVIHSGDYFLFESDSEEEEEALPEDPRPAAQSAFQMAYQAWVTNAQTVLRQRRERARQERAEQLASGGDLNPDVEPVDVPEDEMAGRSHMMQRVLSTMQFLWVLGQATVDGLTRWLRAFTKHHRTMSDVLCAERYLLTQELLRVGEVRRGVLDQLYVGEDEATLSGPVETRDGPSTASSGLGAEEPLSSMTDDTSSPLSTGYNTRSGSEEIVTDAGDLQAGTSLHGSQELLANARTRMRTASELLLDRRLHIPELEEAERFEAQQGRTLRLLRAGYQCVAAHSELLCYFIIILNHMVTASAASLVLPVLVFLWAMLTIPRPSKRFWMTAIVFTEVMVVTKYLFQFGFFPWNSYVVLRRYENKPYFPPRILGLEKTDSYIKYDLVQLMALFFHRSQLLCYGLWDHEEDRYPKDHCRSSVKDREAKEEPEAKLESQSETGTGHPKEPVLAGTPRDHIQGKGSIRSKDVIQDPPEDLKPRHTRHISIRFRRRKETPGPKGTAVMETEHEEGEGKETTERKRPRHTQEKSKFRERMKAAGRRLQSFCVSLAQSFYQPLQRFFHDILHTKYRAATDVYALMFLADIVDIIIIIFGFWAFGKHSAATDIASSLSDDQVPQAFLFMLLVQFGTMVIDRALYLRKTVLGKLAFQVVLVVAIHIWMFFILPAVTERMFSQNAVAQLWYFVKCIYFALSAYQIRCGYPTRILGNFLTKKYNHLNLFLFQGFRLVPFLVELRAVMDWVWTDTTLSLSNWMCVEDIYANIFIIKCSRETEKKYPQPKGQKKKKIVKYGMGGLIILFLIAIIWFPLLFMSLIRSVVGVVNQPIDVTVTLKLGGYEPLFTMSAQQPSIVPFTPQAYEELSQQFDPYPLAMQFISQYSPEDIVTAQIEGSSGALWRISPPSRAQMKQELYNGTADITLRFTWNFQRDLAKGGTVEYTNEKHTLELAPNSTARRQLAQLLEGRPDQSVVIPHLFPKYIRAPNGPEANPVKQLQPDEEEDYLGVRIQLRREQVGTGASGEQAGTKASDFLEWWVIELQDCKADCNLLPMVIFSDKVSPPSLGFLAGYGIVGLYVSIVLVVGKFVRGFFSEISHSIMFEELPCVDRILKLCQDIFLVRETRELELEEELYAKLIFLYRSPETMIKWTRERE
Experimental: as §1, §2, §3

[3] = molecular target: T3, WT mPIEZO1 (Mus musculus, UniProt E2JF22); conditions: 1.5 min exposure
T3 construct: expressed in transfected cells
T3 sequence (E2JF22 whole entry): as the sequence (E2JF22 whole entry E824V) above, with V824E counted along it
Experimental: as §1, §2, §3

T1 sequence (E2JF22 whole entry R2351Q): as the sequence (E2JF22 whole entry E824V) above, with V824E, R2351Q counted along it

Clc1cccc(Cl)c1CSc1nnc(-c2cnccn2)s1 [Yoda1] was tested, and the “Mean (Ca2+ signal time course, Figure 4f)” value ([1]; R2351Q, 3 µM, time 35 s) was -0.09017, the “Mean (Ca2+ signal time course, Figure 4f)” value ([1]; R2351Q, 3 µM, time 40 s) was 0.3419 and the “Mean (Ca2+ signal time course, Figure 4f)” value ([1]; R2351Q, 3 µM, time 45 s) was 0.4568. The “Mean (Ca2+ signal time course, Figure 4f)” value ([1]; R2351Q, 3 µM, time 50 s) was 0.5783, the “Mean (Ca2+ signal time course, Figure 4f)” value ([1]; R2351Q, 3 µM, time 55 s) was 0.623 and the “Mean (Ca2+ signal time course, Figure 4f)” value ([1]; R2351Q, 3 µM, time 60 s) was 0.705. For the same molecule, the “Mean (Ca2+ signal time course, Figure 4f)” value ([1]; R2351Q, 3 µM, time 65 s) was 0.7592, the “Mean (Ca2+ signal time course, Figure 4f)” value ([1]; R2351Q, 3 µM, time 70 s) was 0.7946 and the “Mean (Ca2+ signal time course, Figure 4f)” value ([1]; R2351Q, 3 µM, time 75 s) was 0.8127. For the same molecule, the “Mean (Ca2+ signal time course, Figure 4f)” value ([1]; R2351Q, 3 µM, time 80 s) was 0.8608, the “Mean (Ca2+ signal time course, Figure 4f)” value ([1]; R2351Q, 3 µM, time 85 s) was 0.9118 and the “Mean (Ca2+ signal time course, Figure 4f)” value ([1]; R2351Q, 3 µM, time 90 s) was 0.9125. For the same molecule, the “Mean (Ca2+ signal time course, Figure 4f)” value ([1]; R2351Q, 3 µM, time 95 s) was 0.9634, the “Mean (Ca2+ signal time course, Figure 4f)” value ([1]; R2351Q, 3 µM, time 100 s) was 1.007 and the “Mean (Ca2+ signal time course, Figure 4f)” value ([1]; R2351Q, 3 µM, time 105 s) was 0.9869. The “Mean (Ca2+ signal time course, Figure 4f)” value ([1]; R2351Q, 3 µM, time 110 s) was 1.018, the “Mean (Ca2+ signal time course, Figure 4f)” value ([1]; R2351Q, 3 µM, time 115 s) was 0.9551 and the “Mean (Ca2+ signal time course, Figure 4f)” value ([1]; R2351Q, 3 µM, time 120 s) was 0.9921. For the same molecule, the “Mean (Ca2+ signal time course, Figure 4f)” value ([1]; R2351Q, 3 µM, time 125 s) was 1.006, the “Mean (Ca2+ signal time course, Figure 4f)” value ([1]; R2351Q, 3 µM, time 130 s) was 0.9688 and the Mean normalise fluorescence ([1]; R2351Q, 20 min exposure, Yoda1 0.03 µM, Figure 4d) was 0.08092. The Mean normalise fluorescence ([1]; R2351Q, 20 min exposure, Yoda1 0.1 µM, Figure 4d) was -0.0159, the Mean normalise fluorescence ([1]; R2351Q, 20 min exposure, Yoda1 0.3 µM, Figure 4d) was 0.3248 and the Mean normalise fluorescence ([1]; R2351Q, 20 min exposure, Yoda1 1 µM, Figure 4d) was 0.9747. For the same molecule, the Mean normalise fluorescence ([1]; R2351Q, 20 min exposure, Yoda1 3 µM, Figure 4d) was 1, the Mean normalise fluorescence ([1]; R2351Q, 20 min exposure, Yoda1 10 µM, Figure 4d) was 0.9987 and the EC50 ([1]; long (20 min) exposure, normalized to 3 μM Yoda1) was 420 nM. It also gave a Mean normalise fluorescence ([1]; short 1.5-min exposure, 0.03 µM) of 0.00392, a Mean normalise fluorescence ([1]; short 1.5-min exposure, 0.1 µM) of 5.49E-04 and a Mean normalise fluorescence ([1]; short 1.5-min exposure, 0.3 µM) of 0.02154. It also gave a Mean normalise fluorescence ([1]; short 1.5-min exposure, 1 µM) of 0.1259, a Mean normalise fluorescence ([1]; short 1.5-min exposure, 3 µM) of 0.401 and a Mean normalise fluorescence ([1]; short 1.5-min exposure, 5 µM) of 0.6595. For the same molecule, the Mean normalise fluorescence ([1]; short 1.5-min exposure, 10 µM) was 1, the “Effect on mPIEZO1 channel function” value ([1]; versus WT) was “loss of MA: LOF; reduced Y1 potency” and the “Effect on mPIEZO1 channel function” value [2] was “reduced Y1 potency”. For the same molecule, the Mean normalise fluorescence ([3]; 0.01 µM) was 0.01111, the Mean normalise fluorescence ([3]; 0.03 µM) was 0.04107 and the Mean normalise fluorescence ([3]; 0.1 µM) was 0.2255. It also gave a Mean normalise fluorescence ([3]; 0.3 µM) of 0.6112, a Mean normalise fluorescence ([3]; 1 µM) of 0.8879 and a Mean normalise fluorescence ([3]; 3 µM) of 0.9862. The Mean normalise fluorescence ([3]; 5 µM) was 1.0356, the Mean normalise fluorescence ([3]; 10 µM) was 1 and the EC50 ([3]; fitted Hill equation) was 240 nM.
